The text below walks through data of patent publication US20240270762A1, “PENICILLIN-BINDING PROTEIN INHIBITORS” (priority 2021, published 2024).

Values after ≈ are worked out from the molar mass of the structure shown. Where two headings read alike, the source gives them in different places.

Experiment [1] addresses T1, PBP3 from Pseudomonas aeruginosa (PAO1) (Pseudomonas aeruginosa, UniProt G3XD46).
T1 construct: made in house
Description: Bocillin-FL fluorescence polarization competition binding, P. aeruginosa PBP3. Particulars: Binding affinity to P. aeruginosa PBP3; fluorescence polarization competition binding assay using Bocillin-FL; read-out: P. aeruginosa PBP3 Potency. The essentials:
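Purified PBP was preincubated with inhibitor (E. coli PBP3 1.5 μM, 30 min; P. aeruginosa PBP3 0.75 μM, A. baumannii PBP3 0.2 μM and PBP1a 1 μM, 15 min), then Bocillin-FL (0.1 μM; 0.05 μM for PBP1a) added and FP read up to 60 min. EC50 = 50% loss of bound probe.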
(Polarisation of emitted light reports the rotation of a fluorescent probe.)

The next experiment deals with T2, A. baumannii PBP1a (Acinetobacter baumannii, UniProt A0ABX6CK30).
T2 sequence (A0ABX6CK30 1-851): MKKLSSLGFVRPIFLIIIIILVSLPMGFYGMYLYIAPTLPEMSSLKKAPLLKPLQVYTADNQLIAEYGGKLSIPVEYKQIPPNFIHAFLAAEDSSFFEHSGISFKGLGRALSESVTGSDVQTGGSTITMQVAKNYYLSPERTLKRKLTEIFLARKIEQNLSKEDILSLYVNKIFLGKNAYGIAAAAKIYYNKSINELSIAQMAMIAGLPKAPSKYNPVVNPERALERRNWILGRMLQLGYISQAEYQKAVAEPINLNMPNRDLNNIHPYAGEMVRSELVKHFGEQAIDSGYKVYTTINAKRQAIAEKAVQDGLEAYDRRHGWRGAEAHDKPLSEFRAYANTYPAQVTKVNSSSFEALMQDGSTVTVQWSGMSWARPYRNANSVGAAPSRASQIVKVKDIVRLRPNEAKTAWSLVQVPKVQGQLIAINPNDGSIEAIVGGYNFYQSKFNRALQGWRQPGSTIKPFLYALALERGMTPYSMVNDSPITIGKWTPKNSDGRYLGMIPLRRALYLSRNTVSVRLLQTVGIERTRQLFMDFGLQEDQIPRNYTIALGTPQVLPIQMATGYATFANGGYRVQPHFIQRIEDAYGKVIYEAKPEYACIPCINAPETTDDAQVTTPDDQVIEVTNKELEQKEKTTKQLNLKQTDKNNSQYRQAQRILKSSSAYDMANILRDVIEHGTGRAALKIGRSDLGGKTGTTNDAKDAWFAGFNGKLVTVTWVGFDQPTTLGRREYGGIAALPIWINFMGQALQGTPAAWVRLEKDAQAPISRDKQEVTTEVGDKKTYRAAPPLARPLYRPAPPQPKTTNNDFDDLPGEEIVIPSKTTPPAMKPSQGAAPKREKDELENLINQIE
Description: Bocillin-FL competition binding via gel filtration, A. baumannii PBP1a. To be noted: competition binding assay using Bocillin-FL via gel filtration; read-out: A. baumannii PBP1a Potency. Summed up:
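Competitive equilibrium binding; reporter Bocillin-FL. PBP + inhibitor (titration) pre-incubated → Bocillin-FL, 15 min → gel filtration → fluorescence. EC50 from Hill fit of fraction bound vs [inhibitor].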

Experiment [2] concerns P. aeruginosa (ΔmexAB-oprM). Description: Broth microdilution MIC in iron-depleted CAMHB (IDM). Particulars: Pseudomonas aeruginosa; iron-depleted CAMHB (IDM); […]; read-out: Minimum inhibitory concentration, P. aeruginosa ΔmexAB-oprM. It counts as cell-based. For orientation: Dilution methods test growth across graded concentrations, often in twofold steps.
A further experiment has as its system A. baumannii CDC-0045. Description: microbe, parasite or virus in culture. Particulars: Acinetobacter baumannii. Type of experiment: cell-based.
Experiment [3] relates to B. thailandensis ATCC 700388. Description: microbe, parasite or virus in culture. Type of experiment: cell-based. Particulars: Burkholderia thailandensis, ATCC700388, read-out: Minimum inhibitory concentration (MIC), B. thailandensis ATCC 700388.
The mark [4] stands for this setting: CDC0045, read-out: MIC, A. baumannii CDC-0045.

T1 sequence (G3XD46 whole entry): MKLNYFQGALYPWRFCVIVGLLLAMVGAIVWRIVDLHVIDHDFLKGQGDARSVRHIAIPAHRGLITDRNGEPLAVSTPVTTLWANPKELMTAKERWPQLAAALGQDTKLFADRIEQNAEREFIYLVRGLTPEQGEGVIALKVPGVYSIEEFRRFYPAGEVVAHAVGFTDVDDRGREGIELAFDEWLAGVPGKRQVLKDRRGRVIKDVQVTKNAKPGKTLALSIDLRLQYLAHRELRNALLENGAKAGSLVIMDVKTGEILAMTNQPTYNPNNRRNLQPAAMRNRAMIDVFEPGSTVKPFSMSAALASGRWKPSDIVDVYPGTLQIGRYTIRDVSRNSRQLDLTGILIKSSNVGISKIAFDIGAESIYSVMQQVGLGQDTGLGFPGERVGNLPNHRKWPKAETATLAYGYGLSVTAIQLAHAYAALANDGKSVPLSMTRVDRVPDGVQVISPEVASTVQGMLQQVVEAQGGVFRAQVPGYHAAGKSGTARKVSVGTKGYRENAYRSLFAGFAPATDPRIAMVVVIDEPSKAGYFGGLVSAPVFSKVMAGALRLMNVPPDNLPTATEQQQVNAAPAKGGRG

As for `O=C(O)c1c(F)ccc2c1OB(O)[C@@H](NC(=O)[C@H](NC(=O)N1CCN(C3CCN(C(=O)c4ccc(F)c(O)c4F)CC3)C1=O)c1cc(F)c(O)c(O)c1Cl)C2` (single isomer, unassigned) [Example 437], the IC50 in experiment [1] was < 10 µM. Also, at A. baumannii PBP1a, the EC50 was < 10 µM. The MIC (in experiment [2]; in the experiment on A. baumannii CDC-0045 (setting [4]); in experiment [3]) was < 1 µg/mL throughout.

`O=C(O)c1c(F)ccc2c1OB(O)[C@@H](NC(=O)[C@H](NC(=O)N1CCN(C3CCN(C(=O)c4c(F)ccc(O)c4F)CC3)C1=O)c1cc(F)c(O)c(O)c1Cl)C2` (single isomer, unassigned) [Example 439]: the IC50 in experiment [1] was < 10 µM. For the same compound, the EC50 on A. baumannii PBP1a lay within 10 to 50 µM. In addition, the MIC (in experiment [2]; with A. baumannii CDC-0045 (setting [4]); in experiment [3]) was < 1 µg/mL each time.

As to `O=C(O)c1c(F)ccc2c1OB(O)[C@@H](NC(=O)[C@H](NC(=O)N1CCN(C3CCN(C(=O)c4c(F)ccc(O)c4Cl)CC3)C1=O)c1cc(F)c(O)c(O)c1Cl)C2` (single isomer, unassigned) [Example 440], in experiment [1], the IC50 was < 10 µM. For the same compound, the EC50 at A. baumannii PBP1a is < 10 µM. For the same compound, the MIC (in experiment [2]; with A. baumannii CDC-0045 (setting [4]); in experiment [3]) was < 1 µg/mL each time.

For `O=C(O)c1c(F)ccc2c1OB(O)[C@@H](NC(=O)[C@H](NC(=O)N1CCN(C3CCN(C(=O)c4cc(F)c(F)c(O)c4F)CC3)C1=O)c1cc(F)c(O)c(O)c1Cl)C2` (single isomer, unassigned) [Example 441], the IC50 in experiment [1] is < 10 µM. Moreover, at A. baumannii PBP1a, the EC50 was < 10 µM. The MIC (in experiment [2]; in the experiment on A. baumannii CDC-0045 (setting [4]); in experiment [3]) was < 1 µg/mL in each case.

Consider `O=C(O)c1c(F)ccc2c1OB(O)[C@@H](NC(=O)[C@H](NC(=O)N1CCN(C3CCN(C(=O)c4cc(O)cc(O)c4)CC3)C1=O)c1cc(F)c(O)c(O)c1Cl)C2` (single isomer, unassigned) [Example 442], for which the IC50 in experiment [1] was < 10 µM. Moreover, at A. baumannii PBP1a, the EC50 is < 10 µM. The MIC (in experiment [2]; with A. baumannii CDC-0045 (setting [4]); in experiment [3]) was < 1 µg/mL in each case.

As to `O=C(O)c1c(F)ccc2c1OB(O)[C@@H](NC(=O)[C@H](NC(=O)N1CCN(C3CCN(C(=O)c4cc(O)c(F)c(O)c4)CC3)C1=O)c1cc(F)c(O)c(O)c1Cl)C2` (single isomer, unassigned) [Example 443], the IC50 in experiment [1] is < 10 µM. Besides, the EC50 on A. baumannii PBP1a was < 10 µM. Also, the MIC (in experiment [2]; in the experiment on A. baumannii CDC-0045 (setting [4]); in experiment [3]) was < 1 µg/mL in each case.

Turning to `O=C(O)c1c(F)ccc2c1OB(O)[C@@H](NC(=O)[C@H](NC(=O)N1CCN(C3CCN(C(=O)c4cc(O)c(F)c(O)c4F)CC3)C1=O)c1cc(F)c(O)c(O)c1Cl)C2` (single isomer, unassigned) [Example 444], the IC50 in experiment [1] is < 10 µM. At A. baumannii PBP1a, the EC50 was < 10 µM. Further, the MIC (in experiment [2]; with A. baumannii CDC-0045 (setting [4]); in experiment [3]) was < 1 µg/mL in each case.

Regarding `O=C(O)c1c(F)ccc2c1OB(O)[C@@H](NC(=O)[C@H](NC(=O)N1CCN(C3CCN(C(=O)Nc4cccc(O)c4F)CC3)C1=O)c1cc(F)c(O)c(O)c1Cl)C2` (single isomer, unassigned) [Example 446], in experiment [1], the IC50 is < 10 µM. For the same compound, the EC50 on A. baumannii PBP1a is 10 to 50 µM. Further, the MIC (in experiment [2]; in the experiment with A. baumannii CDC-0045 (setting [4]); in experiment [3]) was < 1 µg/mL throughout.

Take `O=C(O)c1c(F)ccc2c1OB(O)[C@@H](NC(=O)[C@H](NC(=O)N1CCN(C3CCN(C(=O)Nc4cc(O)ccc4Cl)CC3)C1=O)c1cc(F)c(O)c(O)c1Cl)C2` (single isomer, unassigned) [Example 448]: in experiment [1], the IC50 was < 10 µM. On A. baumannii PBP1a, the EC50 is < 10 µM. Moreover, the MIC (in experiment [2]; in the experiment on A. baumannii CDC-0045 (setting [4]); in experiment [3]) was < 1 µg/mL each time.

As for `O=C(O)c1c(F)ccc2c1OB(O)[C@@H](NC(=O)[C@H](NC(=O)N1CCN(C3CCN(C(=O)Nc4ccc(F)c(O)c4)CC3)C1=O)c1cc(F)c(O)c(O)c1Cl)C2` (single isomer, unassigned) [Example 449], the IC50 in experiment [1] was < 10 µM. In addition, at A. baumannii PBP1a, the EC50 is < 10 µM. For the same compound, the MIC (in experiment [2]; with A. baumannii CDC-0045 (setting [4]); in experiment [3]) was < 1 µg/mL each time.

Turning to `O=C(O)c1c(F)ccc2c1OB(O)[C@@H](NC(=O)[C@H](NC(=O)N1CCN(C3CCN(C(=O)Nc4cc(O)cc(F)c4)CC3)C1=O)c1cc(F)c(O)c(O)c1Cl)C2` (single isomer, unassigned) [Example 450], the IC50 in experiment [1] is < 10 µM. Moreover, at A. baumannii PBP1a, the EC50 was < 10 µM. The MIC (in experiment [2]; with A. baumannii CDC-0045 (setting [4]); in experiment [3]) was < 1 µg/mL each time.

With `O=C(O)c1c(F)ccc2c1OB(O)[C@@H](NC(=O)[C@H](NC(=O)N1CCN(C3CCN(C(=O)Nc4cc(O)ccc4F)CC3)C1=O)c1cc(F)c(O)c(O)c1Cl)C2` (single isomer, unassigned) [Example 451], the IC50 in experiment [1] was < 10 µM. Moreover, the EC50 at A. baumannii PBP1a was < 10 µM. For the same compound, the MIC (in experiment [2]; in the experiment on A. baumannii CDC-0045 (setting [4]); in experiment [3]) was < 1 µg/mL throughout.

Consider `O=C(O)c1c(F)ccc2c1OB(O)[C@@H](NC(=O)[C@H](NC(=O)N1CCN(C3CCN(C(=O)Nc4c(F)ccc(O)c4F)CC3)C1=O)c1cc(F)c(O)c(O)c1Cl)C2` (single isomer, unassigned) [Example 454], for which the IC50 in experiment [1] was < 10 µM. Besides, the EC50 at A. baumannii PBP1a is < 10 µM. In addition, the MIC (in experiment [2]; in the experiment with A. baumannii CDC-0045 (setting [4]); in experiment [3]) was < 1 µg/mL in each case.

With `O=C(O)c1c(F)ccc2c1OB(O)[C@@H](NC(=O)[C@H](NC(=O)N1CCN(C3CCN(C(=O)Nc4c(F)ccc(O)c4Cl)CC3)C1=O)c1cc(F)c(O)c(O)c1Cl)C2` (single isomer, unassigned) [Example 455], the IC50 in experiment [1] is < 10 µM. The EC50 at A. baumannii PBP1a was < 10 µM. The MIC (in experiment [2]; in the experiment on A. baumannii CDC-0045 (setting [4]); in experiment [3]) was < 1 µg/mL in each case.

Consider `O=C(O)c1c(F)ccc2c1OB(O)[C@@H](NC(=O)[C@@H](NC(=O)N1CCN(C3CCN(C(=O)c4ccc(O)cc4)CC3)C1=O)c1cc(F)c(O)c(O)c1Cl)C2` (single isomer, unassigned) [Example 462], for which, in experiment [1], the IC50 is 10 to 50 µM. Also, at A. baumannii PBP1a, the EC50 is < 10 µM. Moreover, the MIC is 2 to 4 µg/mL (≈ 2.64 to 5.28 µM) in experiment [2], 32 to 64 µg/mL (≈ 42.2 to 84.4 µM) in the experiment on A. baumannii CDC-0045 (setting [4]) and > 128 µg/mL in experiment [3].

With `O=C(O)c1c(F)ccc2c1OB(O)[C@@H](NC(=O)[C@H](NC(=O)N1CCN(C3CCN(C(=O)c4ccc(O)cc4)CC3)C1=O)c1cc(F)c(O)c(O)c1Cl)C2` (single isomer, unassigned) [Example 463], the IC50 in experiment [1] is < 10 µM. Besides, at A. baumannii PBP1a, the EC50 is < 10 µM. Moreover, the MIC (in experiment [2]; in the experiment with A. baumannii CDC-0045 (setting [4]); in experiment [3]) was < 1 µg/mL in each case.

For `O=C(O)c1c(F)ccc2c1OB(O)[C@@H](NC(=O)[C@H](NC(=O)N1CCN(C3CCN(C(=O)c4cc(F)c(O)c(O)c4Cl)CC3)C1=O)c1ccc(P(=O)(O)O)cc1)C2` (single isomer, unassigned) [Example 495], in experiment [1], the IC50 is < 10 µM. For the same compound, the EC50 on A. baumannii PBP1a was < 10 µM. In addition, the MIC in experiment [2] is < 1 µg/mL; with A. baumannii CDC-0045 (CDC0045, read-out: Minimum inhibitory concentration (MIC), A. baumannii CDC-0045), < 1 µg/mL; in experiment [3], < 1 µg/mL.
